Assay results published in patent publication US10716306B2, “N-alkylsulfonyl indoline compound, agricultural and horticultural insecticide comprising the compound, and method for using the insecticide” (Nihon Nohyaku Co., Ltd., priority 2016, dated 2020).

What was measured:
[1] = system: Plutella xylostella; assay: Insecticidal test on Plutella xylostella; format: in vivo; settings: 144 h, Chinese cabbage seedlings with laid eggs dipped about 30 seconds, 25° C., 6 days after the dip treatment, read-out: insecticidal efficacy (corrected mortality rate)
Text: Insecticidal Test on Plutella xylostella
Adults of Plutella xylostella were released onto Chinese cabbage seedlings and allowed to lay eggs thereon. At 2 days after the release of the adults, the Chinese cabbage seedlings with laid eggs were dipped for about 30 seconds in agrochemical dispersions diluted to 500 ppm, each of which contained a different kind of indoline compound represented by the general formula (1) of the present invention as an active ingredient. After air-dried, the seedlings were kept in a thermostatic chamber at 25° C. At 6 days after the dip treatment, the number of hatched larvae per plot was counted, the mortality rate was calculated according to the formula shown below, and the insecticidal efficacy was evaluated according to the criteria of Test Example 2. This test was conducted in triplicate using 10 adults of Plutella xylostella per plot. Corrected mortality rate (%)=100×(Number of hatched larvae in a non-treatment plot−Number of hatched larvae in a treatment plot)/Number of hatched larvae in a non-treatment plot [Math. 3]

[2] = system: Laodelphax striatellus; assay: Insecticidal test on Laodelphax striatellus; format: in vivo; settings: 192 h, rice seedlings dipped 30 seconds, ten 3rd-instar larvae, 8 days after the inoculation, read-out: insecticidal efficacy (corrected mortality rate)
Text: Insecticidal Test on Laodelphax striatellus
The condensed heterocyclic compounds represented by the general formula (1) of the present invention or salts thereof were separately dispersed in water and diluted to 500 ppm. Rice plant seedlings (variety: Nihonbare) were dipped in the agrochemical dispersions for 30 seconds. After air-dried, each seedling was put into a separate glass test tube and inoculated with ten 3rd-instar larvae of Laodelphax striatellus, and then the glass test tubes were capped with cotton plugs. At 8 days after the inoculation, the numbers of surviving larvae and dead larvae were counted, the corrected mortality rate was calculated according to the formula shown below, and the insecticidal efficacy was evaluated according to the criteria shown below. Corrected mortality rate (%)=100×(Survival rate in a non-treatment plot−Survival rate in a treatment plot)/Survival rate in a non-treatment plot [Math. 2] Corrected Mortality Rate A: the corrected mortality rate is 100%. B: the corrected mortality rate is 90 to 99%. C: the corrected mortality rate is 80 to 89%. D: the corrected mortality rate is 50 to 79%.

Compound	mortality at 500 ppm [1]	mortality at 500 ppm [2]
CCS(=O)(=O)N1c2ccccc2CC1c1nc2cc(C(F)(F)F)cnc2n1C (centres unmarked) [Compound 2-1, 2-(1-ethylsulfonyl-indolin-2-yl)-3-methyl-6-trifluoromethyl-3H-imidazo[4,5-b]pyridine]	100%	100%
CCS(=O)(=O)N1c2ccccc2CC1c1nc2cc(SC(F)(F)F)ccc2o1 (centres unmarked) [Compound 3-1, 2-(1-ethylsulfonyl-indolin-2-yl)-5-trifluoromethyl-thiobenzo[d]oxazole]	100%	100%
CCS(=O)(=O)N1c2ccc(C3CC3)cc2CC1c1nc2cc(SC(F)(F)F)ccc2o1 (centres unmarked) [Compound 3-19, 2-(1-ethylsulfonyl-5-cyclopropyl-indolin-2-yl)-5-trifluoromethyl-thiobenzo[d]oxazole]	100%	100%
CCS(=O)(=O)N1c2ccc(I)cc2CC1c1nc2cc(SC(F)(F)F)ccc2o1 (centres unmarked) [Compound 3-5, 2-(1-ethylsulfonyl-5-iodoindolin-2-yl)-5-trifluoromethyl-thiobenzo[d]oxazole]	100%	100%
